Holding throughout (experiment): Weeding effect in post-emergence stage
What all share (assay type): in vivo

Experiment [1] has as its system Eleusine indica. To be noted: Dose 15 g/ha; for Weeding effect in post-emergence stage, Eleusine indica: level of fresh weight growth control rate. In outline: (§1)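 Seeds are sown in soil-filled pots under 0.5-2 cm soil and grown 2 weeks in greenhouse. Plants at 2-3 leaves are sprayed with compound (acetone, Tween 80, 1.5 liter/ha methyl oleate EC, water) at 7.5 to 500 g/ha. Damage is rated 3 weeks later, averaging three repeats.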

For experiment [2], the system named is Digitaria sanguinalis. Conditions: Dose 15 g/ha; for Weeding effect in post-emergence stage, Digitaria sanguinalis: level of fresh weight growth control rate. The method, boiled down:
as §1

Experiment [3] has as its system Abutilon theophrasti. To be noted: Dose 15 g/ha; for Weeding effect in post-emergence stage, Abutilon theophrasti: level of fresh weight growth control rate. The method, boiled down:
as §1

Experiment [4] has as its system Alopecurus japonicus. To be noted: Dose 15 g/ha; for Weeding effect in post-emergence stage, Alopecurus japonicus: level of fresh weight growth control rate. In outline: as §1
Experiment [5] has as its system Setaria viridis. Conditions: Dose 15 g/ha; for Weeding effect in post-emergence stage, Setaria viridis: level of fresh weight growth control rate. The method, boiled down: as §1
For experiment [6], the system named is Echinochloa crusgalli. To be noted: Dose 15 g/ha; for Weeding effect in post-emergence stage, Echinochloa crusgalli: level of fresh weight growth control rate. In outline:
as §1

Setting [7] is: fresh weight control rate level.

On to `CC(O/N=C/c1cc(-n2c(=O)n(C)c(=S)n(C)c2=O)c(F)cc1Cl)C(=O)OCc1ccncc1` (stereo not drawn) [Compound 60], for which, in experiment [1], the “Weeding effect in post-emergence stage, Eleusine indica” value was 5 (Level 5: growth control rate is above 85%). Moreover, the “Weeding effect in post-emergence stage, Digitaria sanguinalis” value in experiment [2] is listed as 5 (Level 5: growth control rate is above 85%). Moreover, in experiment [3], the “Weeding effect in post-emergence stage, Abutilon theophrasti” value is 5 (Level 5: growth control rate is above 85%). The “Weeding effect in post-emergence stage, Alopecurus japonicus” value in experiment [4] is 4 (Level 4: growth control rate is greater than or equal to 60% and less than 85%). The “Weeding effect in post-emergence stage, Setaria viridis” value in experiment [5] is 5 (Level 5: growth control rate is above 85%). In addition, the “Weeding effect in post-emergence stage, Echinochloa crusgalli” value in experiment [6] is 5 (Level 5: growth control rate is above 85%).
As for `CCOC(=O)C(C)=NOC(=O)C(C)ON=Cc1cc(-n2c(=O)cc(C(F)(F)F)n(C)c2=O)c(F)cc1Cl` [254(R)], the “Weeding effect in post-emergence stage, Eleusine indica” value in experiment [1] is recorded as 5 (Level 5: growth control rate is above 85%). The “Weeding effect in post-emergence stage, Digitaria sanguinalis” value in experiment [2] was 5 (Level 5: growth control rate is above 85%). The “Weeding effect in post-emergence stage, Abutilon theophrasti” value in experiment [3] is 5 (Level 5: growth control rate is above 85%). Besides, the “Weeding effect in post-emergence stage, Alopecurus japonicus” value in experiment [4] was 5 (Level 5: growth control rate is above 85%). Also, the “Weeding effect in post-emergence stage, Setaria viridis” value in experiment [5] is 5 (Level 5: growth control rate is above 85%). Moreover, in experiment [6], the “Weeding effect in post-emergence stage, Echinochloa crusgalli” value is given as 5 (Level 5: growth control rate is above 85%).
As for `CCCOC(=O)[C@@H](C)O/N=C/c1cc(-n2c(=O)n(C)c(=S)n(C)c2=O)c(F)cc1Cl` [4(R)], in experiment [1], the “Weeding effect in post-emergence stage, Eleusine indica” value is recorded as 5 (Level 5: growth control rate is above 85%). Besides, the “Weeding effect in post-emergence stage, Digitaria sanguinalis” value in experiment [2] was 5 (Level 5: growth control rate is above 85%). Moreover, in experiment [3], the “Weeding effect in post-emergence stage, Abutilon theophrasti” value is 5 (Level 5: growth control rate is above 85%). The “Weeding effect in post-emergence stage, Alopecurus japonicus” value in experiment [4] was 5 (Level 5: growth control rate is above 85%). Moreover, the “Weeding effect in post-emergence stage, Setaria viridis” value in experiment [5] is listed as 5 (Level 5: growth control rate is above 85%). In addition, in experiment [6], the “Weeding effect in post-emergence stage, Echinochloa crusgalli” value is listed as 5 (Level 5: growth control rate is above 85%).
`COC(=O)[C@@H](C)O/N=C/c1cc(-n2c(=O)n(C)c(=S)n(C)c2=S)c(F)cc1Cl` [124(R)]: the “Weeding effect in post-emergence stage, Eleusine indica” value in experiment [1] is on record as 5 (Level 5: growth control rate is above 85%). The “Weeding effect in post-emergence stage, Digitaria sanguinalis” value in experiment [2] was 5 (Level 5: growth control rate is above 85%). Also, in experiment [3], the “Weeding effect in post-emergence stage, Abutilon theophrasti” value is 5 (Level 5: growth control rate is above 85%). In addition, in experiment [4], the “Weeding effect in post-emergence stage, Alopecurus japonicus” value is listed as 5 (Level 5: growth control rate is above 85%). The “Weeding effect in post-emergence stage, Setaria viridis” value in experiment [5] is 5 (Level 5: growth control rate is above 85%). Further, in experiment [6], the “Weeding effect in post-emergence stage, Echinochloa crusgalli” value is given as 5 (Level 5: growth control rate is above 85%).
Consider `CC(O/N=C/c1cc(-n2c(=O)n(C)c(=S)n(C)c2=O)c(F)cc1Cl)C(=O)OCCCF` (racemic) [Compound 11], for which the “Weeding effect in post-emergence stage, Eleusine indica” value in experiment [1] is on record as 5 (Level 5: growth control rate is above 85%). Moreover, the “Weeding effect in post-emergence stage, Digitaria sanguinalis” value in experiment [2] was 5 (Level 5: growth control rate is above 85%). Further, in experiment [3], the “Weeding effect in post-emergence stage, Abutilon theophrasti” value is 5 (Level 5: growth control rate is above 85%). Besides, the “Weeding effect in post-emergence stage, Alopecurus japonicus” value in experiment [4] is 5 (Level 5: growth control rate is above 85%). In experiment [5], the “Weeding effect in post-emergence stage, Setaria viridis” value is given as 5 (Level 5: growth control rate is above 85%). Further, in experiment [6], the “Weeding effect in post-emergence stage, Echinochloa crusgalli” value is listed as 5 (Level 5: growth control rate is above 85%).
For the compound `COC(=O)[C@@H](C)O/N=C/c1cc(-n2c(=O)n(C)c(=O)n(C)c2=O)c(F)cc1Cl` [164(R)], the “Weeding effect in post-emergence stage, Eleusine indica” value in experiment [1] is recorded as 5 (Level 5: growth control rate is above 85%). The “Weeding effect in post-emergence stage, Digitaria sanguinalis” value in experiment [2] was 5 (Level 5: growth control rate is above 85%). In experiment [3], the “Weeding effect in post-emergence stage, Abutilon theophrasti” value is reported as 5 (Level 5: growth control rate is above 85%). Further, in experiment [4], the “Weeding effect in post-emergence stage, Alopecurus japonicus” value is reported as 5 (Level 5: growth control rate is above 85%). Also, the “Weeding effect in post-emergence stage, Setaria viridis” value in experiment [5] was 5 (Level 5: growth control rate is above 85%). Moreover, the “Weeding effect in post-emergence stage, Echinochloa crusgalli” value in experiment [6] was 5 (Level 5: growth control rate is above 85%).
Regarding `CC(O/N=C/c1cc(-n2c(=O)n(C)c(=S)n(C)c2=O)c(F)cc1Cl)C(=O)OCCCC(F)(F)F` (racemic) [Compound 12], the “Weeding effect in post-emergence stage, Eleusine indica” value in experiment [1] is recorded as 5 (Level 5: growth control rate is above 85%). Besides, in experiment [2], the “Weeding effect in post-emergence stage, Digitaria sanguinalis” value is 5 (Level 5: growth control rate is above 85%). In experiment [3], the “Weeding effect in post-emergence stage, Abutilon theophrasti” value is 5 (Level 5: growth control rate is above 85%). For the same compound, in experiment [4], the “Weeding effect in post-emergence stage, Alopecurus japonicus” value is reported as 5 (Level 5: growth control rate is above 85%). The “Weeding effect in post-emergence stage, Setaria viridis” value in experiment [5] is listed as 5 (Level 5: growth control rate is above 85%). For the same compound, the “Weeding effect in post-emergence stage, Echinochloa crusgalli” value in experiment [6] is 5 (Level 5: growth control rate is above 85%).
With `CSCCOC(=O)C(C)O/N=C/c1cc(-n2c(=O)cc(C(F)(F)F)n(C)c2=O)c(F)cc1Cl` (stereo not drawn) [Compound 234], the “Weeding effect in post-emergence stage, Eleusine indica” value in experiment [1] is on record as 5 (Level 5: growth control rate is above 85%). In addition, the “Weeding effect in post-emergence stage, Digitaria sanguinalis” value in experiment [2] is recorded as 5 (Level 5: growth control rate is above 85%). The “Weeding effect in post-emergence stage, Abutilon theophrasti” value in experiment [3] is 5 (Level 5: growth control rate is above 85%). Moreover, in experiment [4], the “Weeding effect in post-emergence stage, Alopecurus japonicus” value is 5 (Level 5: growth control rate is above 85%). In addition, the “Weeding effect in post-emergence stage, Setaria viridis” value in experiment [5] is on record as 5 (Level 5: growth control rate is above 85%). Moreover, the “Weeding effect in post-emergence stage, Echinochloa crusgalli” value in experiment [6] is on record as 5 (Level 5: growth control rate is above 85%).
Take `CC(O/N=C/c1cc(-n2c(=O)cc(C(F)(F)F)n(C)c2=O)c(F)cc1Cl)C(=O)OC(C)(C)C` (racemic) [Compound 202]: in experiment [1], the “Weeding effect in post-emergence stage, Eleusine indica” value is listed as 5 (Level 5: growth control rate is above 85%). In addition, the “Weeding effect in post-emergence stage, Digitaria sanguinalis” value in experiment [2] is on record as 5 (Level 5: growth control rate is above 85%). The “Weeding effect in post-emergence stage, Abutilon theophrasti” value in experiment [3] is 5 (Level 5: growth control rate is above 85%). Also, the “Weeding effect in post-emergence stage, Alopecurus japonicus” value in experiment [4] was 5 (Level 5: growth control rate is above 85%). Also, the “Weeding effect in post-emergence stage, Setaria viridis” value in experiment [5] is reported as 5 (Level 5: growth control rate is above 85%). Moreover, the “Weeding effect in post-emergence stage, Echinochloa crusgalli” value in experiment [6] is 5 (Level 5: growth control rate is above 85%).
As to `C/C(=N\OC(=O)[C@@H](C)O/N=C/c1cc(-n2c(=O)cc(C(F)(F)F)n(C)c2=O)c(F)cc1Cl)C(C)(C)C` [449(R)], in experiment [1] (setting [7]), the “Weeding effect in post-emergence stage, Eleusine indica (level)” value is recorded as 5 (Level 5: growth control rate is above 85%). In addition, in experiment [2] (setting [7]), the “Weeding effect in post-emergence stage, Digitaria sanguinalis (level)” value is on record as 5 (Level 5: growth control rate is above 85%). The “Weeding effect in post-emergence stage, Abutilon theophrasti (level)” value in experiment [3] (setting [7]) was 5 (Level 5: growth control rate is above 85%). Besides, in experiment [4] (setting [7]), the “Weeding effect in post-emergence stage, Alopecurus japonicus (level)” value is given as 5 (Level 5: growth control rate is above 85%). The “Weeding effect in post-emergence stage, Setaria viridis (level)” value in experiment [5] (setting [7]) is 5 (Level 5: growth control rate is above 85%). The “Weeding effect in post-emergence stage, Echinochloa crusgalli (level)” value in experiment [6] (setting [7]) is reported as 5 (Level 5: growth control rate is above 85%).

Values taken from patent US20230111310A1, “CARBOXYLIC ACID DERIVATIVE-SUBSTITUTED IMINO ARYL COMPOUND, PREPARATION METHOD THEREFOR, HERBICIDAL COMPOSITION AND USE THEREOF” (Qingdao Kingagroot Chemical Compound Co., Ltd., priority 2020, published 2023).
